This assay relates to Aβ42. The assay is described as follows: In vitro cell screening assay in H4 cells expressing human APP751: Aβ42 by sandwich ELISA. To be noted: compounds 0.003-10 μM, incubated overnight (16-18 h), sandwich ELISA of supernatant. The class given is cell-based. The method, boiled down: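 Secreted Aβ42 measured by sandwich ELISA, C-terminal-specific capture and 4G8-HRP detection, TMB read at 450 nm, from supernatants of APP751-expressing H4 cells exposed overnight (16-18 h) to 0.003-10 μM compound in Pro293 medium, 0.33% DMSO. Data scaled between DMSO and DAPT controls; EC50 from variable-slope nonlinear regression.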

For orientation: EC50 means the concentration at which the effect is half-maximal. A high value points to a need for much substance. `COc1nc(C2=NOCC(c3cn(C)c4ccc(C(F)(F)F)cc34)N2)ccc1-n1cnc(C)c1` (single isomer, unassigned; (-)) [Example 233A, (−)-3-(6-methoxy-5-(4-methyl-1H-imidazol-1-yl)pyridin-2-yl)-5-(1-methyl-5-(trifluoromethyl)-1H-indol-3-yl)-5,6-dihydro-4H-1,2,4-oxadiazine] yielded an EC50 of 94.5 nM. Take `COc1nc(C2=NOCC(c3ccc(F)cc3F)N2)ccc1-n1cnc(C)c1` (single isomer, unassigned) [Example 129A, 5-(2,4-difluorophenyl)-3-(6-methoxy-5-(4-methyl-1H-imidazol-1-yl)pyridin-2-yl)-5,6-dihydro-4H-1,2,4-oxadiazine]: it took 2780 nM to reach a half-maximal effect (EC50).

The compound `COc1cccc(C2CON=C(c3ccc(-n4cnc(C)c4)c(OC)n3)N2)c1` (single isomer, unassigned; (+)) [Example 145B, (+)-3-(6-methoxy-5-(4-methyl-1H-imidazol-1-yl)pyridin-2-yl)-5-(3-methoxyphenyl)-5,6-dihydro-4H-1,2,4-oxadiazine] showed an EC50 of 197 nM.

Consider `COc1nc(C2=NOCC(c3cn(C)c4ccc(F)cc34)N2)ccc1-n1cnc(C)c1` (single isomer, unassigned; (+)) [Example 190B, (+)-5-(5-fluoro-1-methyl-1H-indol-3-yl)-3-(6-methoxy-5-(4-methyl-1H-imidazol-1-yl)pyridin-2-yl)-5,6-dihydro-4H-1,2,4-oxadiazine], for which the response was half-maximal at 19.5 nM (EC50). This EC50 is about 10-fold lower than that of the compound before. On to `COc1nc(C2=NOCC(c3cc4ccc(C(F)(F)F)cc4o3)N2)ccc1-n1cnc(C)c1` (single isomer, unassigned; (-)) [Example 260A, (−)-3-(6-methoxy-5-(4-methyl-1H-imidazol-1-yl)pyridin-2-yl)-5-(6-(trifluoromethyl)benzofuran-2-yl)-5,6-dihydro-4H-1,2,4-oxadiazine], for which a half-maximal response (EC50) required 2320 nM. Consider `COc1nc(C2=NOCC(c3cc4cccc(Cl)c4o3)N2)ccc1-n1cnc(C)c1` (single isomer, unassigned; (+)) [Example 64B, (+)-5-(7-chlorobenzofuran-2-yl)-3-(6-methoxy-5-(4-methyl-1H-imidazol-1-yl)pyridin-2-yl)-5,6-dihydro-4H-1,2,4-oxadiazine], for which the EC50 turned out to be 12.2 nM.

For `COc1nc(C2=NOCC(c3cn(C)c4ccc(C5CC5)cc34)N2)ccc1-n1cnc(C)c1` (single isomer, unassigned; (+)) [Example 221B, (+)-5-(5-cyclopropyl-1-methyl-1H-indol-3-yl)-3-(6-methoxy-5-(4-methyl-1H-imidazol-1-yl)pyridin-2-yl)-5,6-dihydro-4H-1,2,4-oxadiazine], the EC50 was 2.9 nM. Consider `COc1nc(C2=NOCC(c3cn(C4CC4)c4cc(F)ccc34)N2)ccc1-n1cnc(C)c1` (single isomer, unassigned; (+)) [Example 228B, (+)-5-(1-cyclopropyl-6-fluoro-1H-indol-3-yl)-3-(6-methoxy-5-(4-methyl-1H-imidazol-1-yl)pyridin-2-yl)-5,6-dihydro-4H-1,2,4-oxadiazine], for which a half-maximal effect (EC50) was put at 8.4 nM. Turning to `COc1nc(C2=NOCC(C)N2)ccc1-n1cnc(C)c1` (single isomer, unassigned; (+)) [Example 149A, (+)-3-(6-methoxy-5-(4-methyl-1H-imidazol-1-yl)pyridin-2-yl)-5-methyl-5,6-dihydro-4H-1,2,4-oxadiazine], where the note is “Homo sapiens”, the EC50 was greater than 3000 nM. In turn, `COc1nc(C2=NOCC(c3nn(C)c4ccc(Cl)cc34)N2)ccc1-n1cnc(C)c1` (single isomer, unassigned; (-)) [Example 232A, (−)-5-(5-chloro-1-methyl-1H-indazol-3-yl)-3-(6-methoxy-5-(4-methyl-1H-imidazol-1-yl)pyridin-2-yl)-5,6-dihydro-4H-1,2,4-oxadiazine] displayed an EC50 of 278 nM. `COc1nc(C2=NOCC(c3cc4cc(F)ccc4o3)N2)ccc1-n1cnc(C)c1` (single isomer, unassigned; (-)) [Example 84A, (−)-5-(5-fluorobenzofuran-2-yl)-3-(6-methoxy-5-(4-methyl-1H-imidazol-1-yl)pyridin-2-yl)-5,6-dihydro-4H-1,2,4-oxadiazine]: a half-maximal effect (EC50) was put at 944 nM. `COc1nc(C2=NOCC(c3cn(C)c4ccc(C(F)(F)F)cc34)N2)ccc1-n1cnc(C)c1` (single isomer, unassigned; (+)) [Example 233B, (+)-3-(6-methoxy-5-(4-methyl-1H-imidazol-1-yl)pyridin-2-yl)-5-(1-methyl-5-(trifluoromethyl)-1H-indol-3-yl)-5,6-dihydro-4H-1,2,4-oxadiazine] gave an EC50 of 1.7 nM. `COc1nc(C2=NOCC(c3cc(F)cc(F)c3)N2)ccc1-n1cnc(C)c1` (single isomer, unassigned; (-)) [Example 81A, (−)-5-(3,5-difluorophenyl)-3-(6-methoxy-5-(4-methyl-1H-imidazol-1-yl)pyridin-2-yl)-5,6-dihydro-4H-1,2,4-oxadiazine] showed an EC50 greater than 3000 nM. `COc1nc(C2=NOCC(c3ccc(S(C)(=O)=O)cc3)N2)ccc1-n1cnc(C)c1` (single isomer, unassigned; (-)) [Example 217A, (−)-3-(6-methoxy-5-(4-methyl-1H-imidazol-1-yl)pyridin-2-yl)-5-(4-(methylsulfonyl)phenyl)-5,6-dihydro-4H-1,2,4-oxadiazine]: under “Homo sapiens”, the EC50 was greater than 3000 nM.

Compound `COc1nc(C2=NOCC(c3ccc(Cl)cc3)N2)ccc1-n1cnc(C)c1` (single isomer, unassigned) [Example 42A, 5-(4-chlorophenyl)-3-(6-methoxy-5-(4-methyl-1H-imidazol-1-yl)pyridin-2-yl)-5,6-dihydro-4H-1,2,4-oxadiazine] returned an EC50 greater than 3000 nM. Take `COc1cc2c(cc1Cl)c(C1CON=C(c3ccc(-n4cnc(C)c4)c(OC)n3)N1)cn2C` (single isomer, unassigned; (-)) [Example 255A, (−)-5-(5-chloro-6-methoxy-1-methyl-1H-indol-3-yl)-3-(6-methoxy-5-(4-methyl-1H-imidazol-1-yl)pyridin-2-yl)-5,6-dihydro-4H-1,2,4-oxadiazine]: the EC50 was determined as 70.4 nM. `COc1nc(C2=NOCC(c3cccc(C#N)c3)N2)ccc1-n1cnc(C)c1` (single isomer, unassigned; (+)) [Example 141B, (+)-3-(3-(6-methoxy-5-(4-methyl-1H-imidazol-1-yl)pyridin-2-yl)-5,6-dihydro-4H-1,2,4-oxadiazin-5-yl) benzonitrile] showed an EC50 of 214 nM. This EC50 is about 3-fold higher than that of the compound before. As for `COc1nc(C2=NOCC(c3ccc(C)c(Cl)c3)N2)ccc1-n1cnc(C)c1` (single isomer, unassigned; (+)) [Example 218B, (+)-5-(3-chloro-4-methylphenyl)-3-(6-methoxy-5-(4-methyl-1H-imidazol-1-yl)pyridin-2-yl)-5,6-dihydro-4H-1,2,4-oxadiazine], it took 14.1 nM to reach a half-maximal effect (EC50). In turn, `COc1cc2c(cc1Cl)c(C1CON=C(c3ccc(-n4cnc(C)c4)c(OC)n3)N1)cn2C` (single isomer, unassigned; (+)) [Example 255B, (+)-5-(5-chloro-6-methoxy-1-methyl-1H-indol-3-yl)-3-(6-methoxy-5-(4-methyl-1H-imidazol-1-yl)pyridin-2-yl)-5,6-dihydro-4H-1,2,4-oxadiazine] came in with an EC50 of 9 nM. As for `COc1nc(C2=NOCC(c3ccc(C4CC4)c(Cl)c3)N2)ccc1-n1cnc(C)c1` (single isomer, unassigned; (-)) [Example 243A, (−)-5-(3-chloro-4-cyclopropylphenyl)-3-(6-methoxy-5-(4-methyl-1H-imidazol-1-yl)pyridin-2-yl)-5,6-dihydro-4H-1,2,4-oxadiazine], the EC50 was 250 nM. Compound `COc1nc(C2=NOCC(c3nn(C)c4ccc(Cl)cc34)N2)ccc1-n1cnc(C)c1` (single isomer, unassigned; (+)) [Example 232B, (+)-5-(5-chloro-1-methyl-1H-indazol-3-yl)-3-(6-methoxy-5-(4-methyl-1H-imidazol-1-yl)pyridin-2-yl)-5,6-dihydro-4H-1,2,4-oxadiazine] had an EC50 of 12.9 nM.

For the compound `COc1nc(C2=NOCC(C3CCCCC3)N2)ccc1-n1cnc(C)c1` (single isomer, unassigned; (+)) [Example 61B, (+)-5-cyclohexyl-3-(6-methoxy-5-(4-methyl-1H-imidazol-1-yl)pyridin-2-yl)-5,6-dihydro-4H-1,2,4-oxadiazine], the midpoint of the response, the EC50, lay at 57.8 nM. Still for that read-out and setting: the same measure for `COc1nc(C2=NOCC(c3cn(C)c4ncc(C5CC5)cc34)N2)ccc1-n1cnc(C)c1` (single isomer, unassigned; (+)) [Example 266B, (+)-5-(5-cyclopropyl-1-methyl-1H-pyrrolo[2,3-b]pyridin-3-yl)-3-(6-methoxy-5-(4-methyl-1H-imidazol-1-yl)pyridin-2-yl)-5,6-dihydro-4H-1,2,4-oxadiazine]: 15.5 nM. The same measure, in the same setting: the same measure for `COc1nc(C2=NOCC(c3ccc(C#N)cc3)N2)ccc1-n1cnc(C)c1` (single isomer, unassigned; (+)) [Example 151B, (+)-4-(3-(6-methoxy-5-(4-methyl-1H-imidazol-1-yl)pyridin-2-yl)-5,6-dihydro-4H-1,2,4-oxadiazin-5-yl) benzonitrile]: 450 nM; for `COc1nc(C2=NOCC(c3nn(C)c4ccc(C(F)(F)F)cc34)N2)ccc1-n1cnc(C)c1` (single isomer, unassigned; (-)) [Example 241A, (−)-3-(6-methoxy-5-(4-methyl-1H-imidazol-1-yl)pyridin-2-yl)-5-(1-methyl-5-(trifluoromethyl)-1H-indazol-3-yl)-5,6-dihydro-4H-1,2,4-oxadiazine]: 386 nM; for `COc1nc(C2=NOCC(c3cc4ccccc4o3)N2)ccc1-n1cnc(C)c1` (single isomer, unassigned; (+)) [Example 186B, (+)-5-(benzofuran-2-yl)-3-(6-methoxy-5-(4-methyl-1H-imidazol-1-yl)pyridin-2-yl)-5,6-dihydro-4H-1,2,4-oxadiazine]: 38.4 nM.

For the origin of these results see patent US9802927B2, “Oxadiazine compounds and methods of use thereof” (Denali Therapeutics, Inc., priority 2015, dated 2017).
